Reference: patent publication US20170081338A1, “SUBSTITUTED HETEROARYL COMPOUNDS AND METHODS OF USE” (Sunshine Lake Pharma Co., Ltd., priority 2015, published 2017)

How the values were obtained:
Aurora-A (h) = target: T1, Aurora-A (h) (Homo sapiens, UniProt O14965); assay: Aurora-A (h) kinase assay; type: biochemical
T1 construct: purchased Millipore UK Ltd (contract assay service)
T1 sequence (O14965 1-403): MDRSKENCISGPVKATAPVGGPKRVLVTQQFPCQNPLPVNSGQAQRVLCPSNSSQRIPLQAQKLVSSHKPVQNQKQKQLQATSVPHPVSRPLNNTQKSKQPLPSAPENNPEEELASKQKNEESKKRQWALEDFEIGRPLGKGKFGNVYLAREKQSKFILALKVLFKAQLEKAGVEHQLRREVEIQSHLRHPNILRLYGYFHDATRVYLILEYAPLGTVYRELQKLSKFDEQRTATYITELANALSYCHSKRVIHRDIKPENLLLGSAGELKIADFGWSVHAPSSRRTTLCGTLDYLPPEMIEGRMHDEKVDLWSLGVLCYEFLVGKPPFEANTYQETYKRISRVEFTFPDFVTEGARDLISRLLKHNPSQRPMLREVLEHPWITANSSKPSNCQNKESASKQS
Protocol: The above assay procedure can be used to determine the IC50 for inhibition and/or the inhibition constant, Ki. The IC50 is defined as the concentration of compound required to reduce the enzyme activity by 50% under the condition of the assay. The IC50 value is estimated by preparing a 10 point curve using a 1/2 log dilution series (for example, a typical curve may be prepared using the following compound concentrations: 3 μM, 1 μM, 0.3 μM, 0.1 μM, 0.03 μM, 0.01 μM, 0.003 μM, 0.001 μM, 0.0003 μM and 0 μM).
Aurora-A (h) is incubated with 8 mM MOPS pH 7.0, 0.2 mM EDTA, 200 μM LRRASLG (Kemptide), 10 mM MgAcetate and [γ-^33P-ATP] (specific activity approx. 500 cpm/pmol, concentration as required). The reaction is initiated by the addition of the MgATP mix. After incubation for 40 minutes at room temperature, the reaction is stopped by the addition of 3% phosphoric acid solution. 10 μL of the reaction is then spotted onto a P30 filtermat and washed three times for 5 minutes in 75 mM phosphoric acid and once in methanol prior to drying and scintillation counting.
The kinase assays described herein were performed at Millipore UK Ltd, Dundee Technology Park, Dundee DD2 1SW, UK.

[1] = Pharmacokinetics after intravenous and oral administration in rats; type: in vivo; conditions: for Clearance (CL) after iv dosing / AUC(0-t) / half-life / Vd: dose 1 mg/kg, iv dosing; for F: oral bioavailability; for AUC(0-t) / half-life / Vd: rat, plasma; for Vd: read-out: Vss
Protocol: The LC/MS/MS system used in the analysis consists of an Agilent 1200 Series vacuum degasser, binary pump, well-plate autosampler, thermostatted column compartment, the Agilent G6430 Triple Quadrupole Mass Spectrometer with an electrosprayionization (ESI) source. Quantitative analysis was carried out using MRM mode. The parameters for MRM transitions are in the Table A.
An Agilent XDB-C18, 2.1×30 mm, 3.5 μM column was used for the analysis. 5 μL of the samples were injected. Analysis condition: The mobile phase was 0.1% formic acid in water (A) and 0.1% formic acid in methanol (B). The flow rate was 0.4 mL/min. And the gradient of Mobile phase was in the Table B.
Alternatively, an Agilent 6330 series LC/MS/MS spectrometer equipped with G1312A binary pumps, a G1367A autosampler and a G1314C UV detector were used in the analysis. An ESI source was used on the LC/MS/MS spectrometer. The analysis was done in positive ion mode as appropriate and the MRM transition for each analyte was optimized using standard solution. A Capcell MP-C18 100×4.6 mm I.D., […] column (Phenomenex, Torrance, Calif., USA) was used during the analysis. The mobile phase was 5 mM ammonia acetate, 0.1% MeOH in water (A): 5 mM ammonia acetate, 0.1% MeOH in acetonitrile (B) (70/30, v/v). The flow rate was 0.6 mL/min. Column was maintained at ambient temperature. 20 μL of the samples were injected.
The compounds disclosed herein are assessed in pharmacokinetic studies in mice, rats, dogs or monkeys. The compounds are administered as a water solution, 2% HPMC+1% TWEEN®80 in water solution, 5% DMSO+5% solutol in saline, 4% MC suspension or capsule. For the intravenous administration, the animals are generally given at 0.5, 1 or 2 mg/kg dose. For the oral (p.o.) dosing, mice and rats are generally given 0.5, 1, 5 or 10 mg/kg dose, and dogs and monkeys are generally given 10 mg/kg dose. The blood samples (0.3 mL) are drawn at 0.25, 0.5, 1.0, 2.0, 3.0, 4.0, 6.0, 8.0, 12 and 24 h time points or 0.083, 0.25, 0.5, 1.0, 2.0, 4.0, 6.0, 8.0 and 24 h time points and centrifuged at 3,000 or 4000 rpm for 2 to 10 min. The plasma solutions are collected, and stored at −20° C. or −70° C. until analyzed by LC/MS/MS as described above.

[2] = Compound stability in human liver microsomes; type: in vitro ADME; conditions: pH 7.4; for half-life at 5 μM: human liver microsomes 0.5 mg protein/mL, compound 5 μM, NADPH, 37° C., read-out: Human T1/2; for CLint scaled at 5 μM: human liver microsomes, in vivo CLint extrapolated
Protocol: (§1) Human or rat liver microsomes incubations were conducted in duplicate in polypropylene tubes. The typical incubation mixtures consisted of human or rat liver microsomes (0.5 mg protein/mL), compounds of interest (5 μM) and NADPH (1.0 mM) in a total volume of 200 μL potassium phosphate buffer (PBS, 100 mM, pH 7.4). Compounds were dissolved in DMSO and diluted with PBS such that the final concentration of DMSO was 0.05%. The enzymatic reactions were commenced with the addition of protein after a 3-min preincubation and incubated in a water bath open to the air at 37° C. Reactions were terminated at various time points (0, 5, 10, 15, 30, 60 min) by adding equal volume of ice-cold acetonitrile. The samples were stored at −80° C. until LC/MS/MS assays.
(§2) The concentrations of compounds in the incubation mixtures of human or rat liver microsomes were determined by a LC/MS/MS method. The ranges of the linearity in the concentration range were determined for each tested compounds.
(§3) A parallel incubation was performed using denatured microsomes as the negative control, and reactions were terminated at various time points (0, 15, 60 min) after incubation at 37° C.
(§4) Dextromethorphan (70 μM) was selected as the positive control, and reactions were terminated at various time points (0, 5, 10, 15, 30, 60 min) after incubation at 37° C. Both positive and negative control samples were included in each assay to ensure the integrity of the microsomal incubation system.
(§5) The concentrations of compounds in human or rat liver microsome incubations were plotted as a percentage of the relevant zero time point control for each reaction. The in vivo CLint were extrapolated (ref.: Naritomi, Y.; Terashita, S.; Kimura, S.; Suzuki, A.; Kagayama, A.; and Sugiyama, Y.; Prediction of human hepatic clearance from in vivo animal experiments and in vitro metabolic studies with liver microsomes from animals and humans. Drug Metab. Dispos., 2001, 29: 1316-1324).

[3] = Compound stability in rat liver microsomes; type: in vitro ADME; conditions: pH 7.4; for half-life at 5 μM: rat liver microsomes 0.5 mg protein/mL, compound 5 μM, NADPH, 37° C., read-out: Rat T1/2; for CLint scaled at 5 μM: rat liver microsomes, in vivo CLint extrapolated
Protocol: as §1, §2, §3, §4, §5

SMILES | IC50 (Aurora-A (h)) | Clearance (CL) after iv dosing [1] | F [1] | AUC(0-t) [1] | half-life [1] | Vd [1] | half-life at 5 μM [2] | CLint scaled at 5 μM [2] | half-life at 5 μM [3] | CLint scaled at 5 μM [3]
Cn1cc(Nc2ncc(Cl)c(N[C@@H]3COC4C3OC[C@@H]4NS(=O)(=O)Cc3ccccc3)n2)cn1 (stereo partly drawn) [Ex. 19, N-((3S,6R)-6-((5-chloro-2-((1-methyl-1H-pyrazol-4-yl)amino)pyrimidin-4-yl)amino)hexahydrofuro[3,2-b]furan-3-yl)-1-phenylmethanesulfonamide] | 0.01 µM | 44.8 mL/min/kg | 28.2% | 374 ng·h/mL | 52.8 min | 2.37 L/kg |  |  |  | 
CC(C)CS(=O)(=O)N[C@H]1COC2C1OC[C@@H]2Nc1nc(Nc2cnn(C)c2)ncc1Cl (stereo partly drawn) [Ex. 28, N-((3S,6S)-6-((5-chloro-2-((1-methyl-1H-pyrazol-4-yl)amino)pyrimidin-4-yl)amino)hexahydrofuro[3,2-b]furan-3-yl)-2-methylpropane-1-sulfonamide] | 0.575 µM |  |  |  |  |  |  |  |  | 
Cn1cc(Nc2ncc(Cl)c(N[C@H]3COC4C3OC[C@H]4NS(=O)(=O)CC(C)(C)C)n2)cn1 (stereo partly drawn) [Ex. 7, N-((3R,6S)-6-((5-chloro-2-((1-methyl-1H-pyrazol-4-yl)amino)pyrimidin-4-yl)amino)hexahydrofuro[3,2-b]furan-3-yl)-2,2-dimethylpropane-1-sulfonamide] | 1.18 µM |  |  |  |  |  |  |  |  | 
CC(C)CS(=O)(=O)N[C@@H]1COC2C1OC[C@H]2Nc1nc(Nc2cnn(C)c2)ncc1Cl (stereo partly drawn) [Ex. 32, N-((3R,6R)-6-((5-chloro-2-((1-methyl-1H-pyrazol-4-yl)amino)pyrimidin-4-yl)amino)hexahydrofuro[3,2-b]furan-3-yl)-2-methylpropane-1-sulfonamide] | 0.478 µM |  |  |  |  |  |  |  |  | 
CC(C)=CS(=O)(=O)N[C@H]1COC2C1OC[C@H]2Nc1nc(Nc2cnn(C)c2)ncc1Cl (stereo partly drawn) [Ex. 43, N-((3S,6R)-6-((5-chloro-2-((1-methyl-1H-pyrazol-4-yl)amino)pyrimidin-4-yl)amino)hexahydrofuro[3,2-b]furan-3-yl)-2-methylprop-1-ene-1-sulfonamide] |  | 35 mL/min/kg | 57.1% | 479 ng·h/mL | 47.4 min | 1.75 L/kg | 22.9 min | 76 mL/min/kg | 25.7 min | 96.5 mL/min/kg
Cn1cc(Nc2ncc(Cl)c(N[C@@H]3COC4C3OC[C@@H]4NS(=O)(=O)C(C)(C)C)n2)cn1 (stereo partly drawn) [Ex. 24, N-((3S,6R)-6-((5-chloro-2-((1-methyl-1H-pyrazol-4-yl)amino)pyrimidin-4-yl)amino)hexahydrofuro[3,2-b]furan-3-yl)-2-methylpropane-2-sulfonamide] |  | 29.3 mL/min/kg | 127.3% | 567 ng·h/mL | 42 min | 1.4 L/kg | 25.6 min | 68 mL/min/kg | 78.6 min | 31.6 mL/min/kg
Cn1cc(Nc2ncc(Cl)c(N[C@@H]3COC4C3OC[C@@H]4NS(=O)(=O)N3CCOCC3)n2)cn1 (stereo partly drawn) [Ex. 11, N-((3S,6R)-6-((5-chloro-2-((1-methyl-1H-pyrazol-4-yl)amino)pyrimidin-4-yl)amino)hexahydrofuro[3,2-b]furan-3-yl)morpholine-4-sulfonamide] |  |  | 40.0% | 542 ng·h/mL | 335 min | 23.5 L/kg | 44.1 min | 39.4 mL/min/kg | 121 min | 20.6 mL/min/kg
Cn1cc(Nc2ncc(Cl)c(N[C@@H]3COC4C3OC[C@@H]4NS(=O)(=O)CC(F)F)n2)cn1 (stereo partly drawn) [Ex. 36, N-((3S,6R)-6-((5-chloro-2-((1-methyl-1H-pyrazol-4-yl)amino)pyrimidin-4-yl)amino)hexahydrofuro[3,2-b]furan-3-yl)-2,2-difluoroethanesulfonamide] | 0.051 µM |  |  |  |  |  |  |  |  | 
CC(CS(=O)(=O)N[C@H]1COC2C1OC[C@H]2Nc1nc(Nc2cnn(C)c2)ncc1Cl)C(F)F (stereo partly drawn) [Ex. 42, N-((3S,6R)-6-((5-chloro-2-((1-methyl-1H-pyrazol-4-yl)amino)pyrimidin-4-yl)amino)hexahydrofuro[3,2-b]furan-3-yl)-3,3-difluoro-2-methylpropane-1-sulfonamide] |  | 32.5 mL/min/kg | 33.1% | 517 ng·h/mL | 46.2 min | 1.37 L/kg | 29.3 min | 59.3 mL/min/kg | 29.6 min | 83.9 mL/min/kg
Cn1cc(Nc2ncc(Cl)c(N[C@@H]3COC4C3OC[C@@H]4N3CCCC3=O)n2)cn1 (stereo partly drawn) [Ex. 22, 1-((3S,6R)-6-((5-chloro-2-((1-methyl-1H-pyrazol-4-yl)amino)pyrimidin-4-yl)amino)hexahydrofuro[3,2-b]furan-3-yl)pyrrolidin-2-one] |  | 10.2 mL/min/kg | 96.9% | 1630 ng·h/mL | 65.4 min | 1.06 L/kg | 289 min | 6.01 mL/min/kg | 104 min | 23.8 mL/min/kg
Cn1cc(Nc2ncc(Cl)c(N[C@@H]3COC4C3OC[C@@H]4NS(=O)(=O)NC3CCOC3)n2)cn1 (stereo partly drawn) [Ex. 29, 5-chloro-N-(1-methyl-1H-pyrazol-4-yl)-4-(((3R,6S)-6-((N-(tetrahydrofuran-3-yl)sulfamoyl)amino)hexahydrofuro[3,2-b]furan-3-yl)amino)pyrimidin-2-amine] | 0.016 µM |  |  |  |  |  |  |  |  | 
